Laboratory results as given in US20020028938A1, “Prostaglandin endoperoxide H synthase biosynthesis inhibitors” (priority 1997, published 2002).
Blank lines part the entries; values can stand above or below the molecule they belong to.

Key:
[1] = molecular target: T1, recombinant human Cox-2 (r-hu Cox-2) (Homo sapiens, UniProt P35354); test: Recombinant human PGHS-2 enzyme assay (RHUCX2); format: biochemical; conditions: for inhibition at 0.1 µM / inhibition at 1 µM: read-out: RHUCX2 % Inh. at Dose; for IC50: read-out: RHUCX2 IC50 (parenthetical value)
T1 construct: made in house; host or cells: baculovirus/Sf9 insect cells (microsomes)
T1 sequence (P35354 18-604): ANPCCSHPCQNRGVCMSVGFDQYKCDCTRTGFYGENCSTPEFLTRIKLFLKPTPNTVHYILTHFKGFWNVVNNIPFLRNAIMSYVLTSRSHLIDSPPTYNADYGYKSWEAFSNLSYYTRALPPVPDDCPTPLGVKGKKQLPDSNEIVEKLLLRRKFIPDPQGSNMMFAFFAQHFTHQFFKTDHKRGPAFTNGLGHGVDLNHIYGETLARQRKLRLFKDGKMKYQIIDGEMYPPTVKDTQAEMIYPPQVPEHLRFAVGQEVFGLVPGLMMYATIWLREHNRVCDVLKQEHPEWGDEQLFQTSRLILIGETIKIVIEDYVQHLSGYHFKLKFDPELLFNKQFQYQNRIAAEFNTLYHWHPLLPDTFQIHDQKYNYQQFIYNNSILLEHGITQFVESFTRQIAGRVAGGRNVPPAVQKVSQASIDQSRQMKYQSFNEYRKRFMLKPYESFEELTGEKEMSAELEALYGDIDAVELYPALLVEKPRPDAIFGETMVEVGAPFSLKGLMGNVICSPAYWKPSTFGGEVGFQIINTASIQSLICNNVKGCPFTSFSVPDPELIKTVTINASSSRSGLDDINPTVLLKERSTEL
Summary of the method: (§1)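 Recombinant enzyme reaction ran 2.5 minutes at room temperature, then was quenched with HCl and neutralized with NaOH. PGE2 formed with and without drug was quantified by EIA against standards in the same milieu. Percent inhibition versus control mean; IC50 by linear regression.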

[2] = molecular target: T2, recombinant human Cox-1 (r-hu Cox1) (Homo sapiens, UniProt P23219); test: Recombinant human PGHS-1 enzyme assay (RHUCX1); format: biochemical; conditions: for inhibition at 100 µM: read-out: RHUCX1 % Inh. at Dose; for IC50: read-out: RHUCX1 IC50 (parenthetical value)
T2 construct: made in house; host or cells: baculovirus/Sf9 insect cells (microsomes)
Summary of the method: as §1

[3] = molecular target: T3, Human Whole Platelet Cyclooxygenase-1 (Homo sapiens, UniProt P23219); test: Human Whole Platelet Cyclooxygenase-1 assay (HWPX); format: cell-based; conditions: for IC50: read-out: HWPX IC50 (parenthetical value)
T3 construct: from tissue; host or cells: human blood: isolated platelets (A4) or heparinised whole blood (A9)
Experimental: Blood from normal healthy volunteers is collected into tubes containing ACD (acid citrate dextrose) as the anticoagulant. This blood is centrifuged at 175×g to prepare platelet rich plasma. The platelet rich plasma is then centrifuged at 100×g to pellet the white blood cells, leaving the platelets in the supernatant. The supernatant is layered on a cushion of 0.7 mL of 10% bovine serum albumin in Tyrodes solution (Gibco; Grand Island, N.Y.) and then centrifuged at 1000×g. The resulting supernatant from this centrifuigation is then removed and 11 mL of Tyrodes solution is added to the remaining pellet of platelets. The platelets are then aliquoted at 120 μl into a 96 well plate. Experimental compounds are added and allowed to pre-incubate for 10 minutes. At the end of this pre-incubation period, the calcium ionophore A23187 is added to a final concentration of 8.8 μM and the incubation is continued for ten minutes. The reaction is stopped by adding cold 6 mM EDTA, the incubation mixture is centrifuged at 220×g, and the supernatants are then analyzed for thromboxane using a commercial kit from Cayman Chemical (Ann Arbor, Mich.

[4] = molecular target: T4, human amnionic whole cell cyclooxygenase-2 (WISH cells) (Homo sapiens, UniProt P35354); test: IL-1β induced PGE2 production in WISH cells; format: cell-based; conditions: for IC50: read-out: Wish IC50 (parenthetical value)
T4 construct: endogenous in cells; host or cells: human amnionic WISH cells, induced with IL-1beta
T4 sequence (P35354 18-604): T1 sequence (P35354 18-604)
Experimental: EIA reagents for prostaglandin determination were purchased from Perseptive Diagnostics, (Cambridge, Mass.). Prostaglandin E2 (PGE2) levels in lavage fluids were determined after the samples were dried under nitrogen and reconstituted with assay buffer. PGE2 levels in enzyme assays or cell culture media were measured against standards prepared in the same milieu. The immunoassays were conducted as recommended by the manufacturer. The EIA was conducted in 96 well microtiter plates (Nunc Roskilde, Denmark) and optical density was measured using a microplate reader (Vmax, Molecular Devices Corp., Menlo Park, Calif.).
Human amnionic WISH cells were grown to 80% confluence in 48 well plates. Following removal of the growth medium and two washings with Geys Balanced Salt Solutn, 5 ng IL-1β /ml (UBI, Lake Placid, N.Y.) was added to the cells with or without test compound in DMSO (0.01% v/v) in Neuman-Tytell Serumless Medium (GIBCO, Grand Island, N.Y.).

[5] = 10 μM, read-out: HWPX % Inhib. at Dose
[6] = read-out: HWPX % Inhib. at Dose

T3 sequence (P23219 24-599): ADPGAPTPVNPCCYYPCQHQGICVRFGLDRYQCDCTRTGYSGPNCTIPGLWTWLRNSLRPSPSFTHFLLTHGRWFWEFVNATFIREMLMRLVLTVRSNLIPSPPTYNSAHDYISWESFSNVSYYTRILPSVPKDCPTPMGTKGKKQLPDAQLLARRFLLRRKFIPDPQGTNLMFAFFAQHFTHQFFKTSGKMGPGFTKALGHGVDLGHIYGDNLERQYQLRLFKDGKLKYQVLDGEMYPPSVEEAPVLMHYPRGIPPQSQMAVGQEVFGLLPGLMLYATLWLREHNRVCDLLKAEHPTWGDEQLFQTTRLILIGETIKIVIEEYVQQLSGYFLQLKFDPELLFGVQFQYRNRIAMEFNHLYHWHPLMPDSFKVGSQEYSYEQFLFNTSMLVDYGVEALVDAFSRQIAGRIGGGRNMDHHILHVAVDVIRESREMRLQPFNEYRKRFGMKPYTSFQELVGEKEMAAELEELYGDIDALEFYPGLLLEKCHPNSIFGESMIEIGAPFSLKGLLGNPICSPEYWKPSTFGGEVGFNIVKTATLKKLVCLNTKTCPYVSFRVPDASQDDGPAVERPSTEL
T2 sequence (P23219 24-599): as above

Molecule: CS(=O)(=O)c1ccc(-c2cnn(Cc3ccccc3)c(=O)c2-c2ccc(Cl)cc2)cc1 [Example 53, 2-Benzyl-4-(4-chlorophenyl)-5-[4-(methylsulfonyl)phenyl]-3(2H)-pyridazinone]
- inhibition at 0.1 µM ([1]; 0.1 μM): 77%
- inhibition at 1 µM ([1]; 1 μM): 99%
- melting point: 157 to 159 °C
- inhibition at 100 µM ([2]; 100 μM): 10%
- inhibition at 1 µM ([3]; 1 μM, read-out: HWPX % Inhib. at Dose): 8%
- inhibition at 10 µM [3, 5]: 78%
- inhibition at 0.01 µM ([4]; 0.01 μM, read-out: Wish % Inhib. at Dose): 44%
- inhibition at 0.1 µM ([4]; 0.1 μM, read-out: Wish % Inhib. at Dose): 90%

Molecule: CS(=O)(=O)c1ccc(-c2cnn(-c3ccc(F)cc3)c(=O)c2Oc2ccc(F)cc2)cc1 [Example 108, 2-(4-Fluorophenyl)-4-(4-fluorophenoxy)-5-[4-(methylsulfonyl)phenyl]-3(2H)-pyridazinone]
- IC50 [1]: 279 nM
- inhibition at 100 µM ([2]; 100 μM): 0%
- IC50 [3]: 8000 nM
- IC50 [4]: 97 nM

Molecule: NS(=O)(=O)c1ccc(-c2cnn(CC3=CCCCC3)c(=O)c2-c2ccc(F)cc2)cc1 [Example 145, 2-(1-Cyclohexenylmethyl)-4-(4-fluorphenyl)-5-[4-(aminosulfonyl)phenyl]-3(2H)-pyridazinone]
- RHUCX2 % Inh. at Dose (μM) ([1]; 0.01 μM): 56 @ 0.01%
- RHUCX2 % Inh. at Dose (μM) ([1]; 0.1 μM): 86 @ 0.1%
- IC50 [2]: 238 nM
- HWPX % Inhib. at Dose (μM) ([3]; 0.3 μM): 30 @ .3%
- HWPX % Inhib. at Dose (μM) ([3]; 1 μM): 72 @ 1%
- IC50 [4]: 9 nM

Molecule: CS(=O)(=O)c1ccc(-c2cnn(-c3ccc(F)cc3)c(=O)c2COc2ccc(F)cc2)cc1 [Example 194, 2-(4-Fluorophenyl)-4-(4-fluolophenoxymethyl)-5-[4-(methylsulfonyl)phenyl]-3(2H)-pyridazinone]
- RHUCX2 % Inh. at Dose (μM) ([1]; 0.1 μM): 72 @ 0.1%
- RHUCX2 % Inh. at Dose (μM) ([1]; 1 μM): 73 @ 1%
- RHUCX2 % Inh. at Dose (μM) ([1]; 10 μM): 90 @ 10%
- RHUCX1 % Inh. at Dose (μM) ([2]; 100 μM): 35 @ 100%
- IC50 [3]: 28100 nM
- IC50 [4]: 69 nM

Molecule: Cc1cc(-c2c(-c3ccc(S(C)(=O)=O)cc3)cnn(-c3cccc(Cl)c3)c2=O)ccc1F [Example 244, 2-(3-Chlorophenyl)-4-(4-fluoro-3-methylphenyl)-5-[4-(methylsulfonyl)phenyl]-3(2H)-pyridazinone]
- melting point: 228 to 230 °C
- IC50 [3]: 3670 nM
- IC50 [4]: 19 nM

Molecule: CS(=O)(=O)c1ccc(-c2cnn(-c3cccc(Cl)c3)c(=O)c2Oc2ccccc2)cc1 [Example 343, 2-(3-Chlorophenyl)-4-(phenoxy)-5-[4-(methylsulfonyl)phenyl]-3(2H)-pyridazinone]
- melting point: 205 to 207 °C
- IC50 [3]: 191 nM
- IC50 [4]: 16 nM

Molecule: CCC(CC)COc1c(-c2ccc(S(C)(=O)=O)cc2)cnn(-c2ccc(F)cc2)c1=O [Example 430, 2-(4-Fluorophenyl)-4-(2-ethyl-1-butoxy)-5-[4-(methylsulfonyl)phenyl]-3(2H)-pyridazinone]
- melting point: 107 to 108 °C
- inhibition at 10 µM [3, 5]: 34%
- inhibition at 100 µM [3, 6]: 89%
- IC50 [4]: 54 nM

Further lines, results first:

- RHUCX2 % Inh. at Dose (μM) ([1]; 0.1 μM): 96 @ 0.1%
- RHUCX2 % Inh. at Dose (μM) ([1]; 1 μM): 100 @ 1%
- RHUCX1 % Inh. at Dose (μM) ([2]; 100 μM): 8 @ 100%
- HWPX % Inhib. at Dose (μM) ([3]; 1 μM): 9 @ 1%
- HWPX % Inhib. at Dose (μM) ([3]; 10 μM): 86 @ 10%
- IC50 [4]: 8 nM
Molecule: 2-(5-Methylthien-2-ylmethyl)-4-(4-fluorophenyl)-5-[4-(methylsulfonyl)phenyl]-3(2H)-pyridazinone [Example 43]

- inhibition at 0.1 µM ([1]; 0.1 μM): 18%
- inhibition at 1 µM ([1]; 1 μM): 65%
- melting point: 222 to 224 °C
- inhibition at 100 µM ([2]; 100 μM): 0%
- IC50 [3]: 25000 nM
- IC50 [4]: 72 nM
Molecule: NS(=O)(=O)c1ccc(-c2cnn(-c3ccc(F)cc3)c(=O)c2-c2ccc(F)cc2)cc1F [Example 72, 2,4-Bis-(4-fluorophenyl)-5-[3-fluoro-4-(aminosulfonyl)phenyl]-3(2H)-pyridazinone]

- melting point: 188 to 190 °C
- inhibition at 3 µM ([3]; 3 μM, read-out: HWPX % Inhib. at Dose): 0%
- inhibition at 10 µM [3, 5]: 84%
Molecule: CS(=O)(=O)c1ccc(-c2cnn(Cc3ccccc3)c(=O)c2Oc2ccc(F)cc2)cc1 [Example 75]

- RHUCX2 % Inh. at Dose (μM) ([1]; 0.1 μM): 52 @ 0.1%
- RHUCX2 % Inh. at Dose (μM) ([1]; 1 μM): 98 @ 1%
- RHUCX1 % Inh. at Dose (μM) ([2]; 1 μM): 85 @ 1%
- HWPX % Inhib. at Dose (μM) ([3]; 1 μM): 62 @ 1%
- IC50 [4]: 18 nM
Molecule: CS(=O)(=O)c1ccc(-c2cnn(-c3ccc([N+](=O)[O-])s3)c(=O)c2-c2ccc(F)cc2)cc1 [Example 105, 2-(5-Nitro-2-thienyl)-4-(4-fluorophenyl)-5-[4-(methylsulfonl)phenyl]-3(2H)-pyridazinone]

- IC50 [1]: 22 nM
- IC50 [2]: 3060 nM
- IC50 [3]: 773 nM
- IC50 [4]: 10 nM
Molecule: CC(/C=C/Cl)n1ncc(-c2ccc(S(N)(=O)=O)cc2)c(-c2ccc(F)cc2)c1=O (stereo not shown) [Example 140, 2-(3-Chloro-1-methyl-2E-propenyl)-4-(4-fluorophenyl)-5-[4-(aminosulfonyl)phenyl]-3(2H)-pyridazinone]

- melting point: 214 to 215 °C
- inhibition at 0.3 µM ([3]; 0.3 μM, read-out: HWPX % Inhib. at Dose): 51%
- IC50 [4]: 42 nM
Molecule: CC(c1ccc(F)c(F)c1)n1ncc(-c2ccc(S(N)(=O)=O)cc2)c(-c2ccc(F)cc2)c1=O (stereo not drawn) [Example 148, 2-(α-Methyl-3,4-difluorobenzyl)-4-(4-fluorophenyl)-5-[4-(aminosulfonlI)phenyl]-3(2H)-pyridazinone]

- IC50 [1]: 3 nM
- RHUCX1 % Inh. at Dose (μM) ([2]; 1 μM): 40 @ 1%
- RHUCX1 % Inh. at Dose (μM) ([2]; 10 μM): 45 @ 10%
- HWPX % Inhib. at Dose (μM) ([3]; 3 μM): 34 @ 3%
- HWPX % Inhib. at Dose (μM) ([3]; 10 μM): 89 @ 10%
- IC50 [4]: 30 nM
Molecule: NS(=O)(=O)c1ccc(-c2cnn(Cc3cccc(F)c3)c(=O)c2-c2ccc(F)cc2)cc1 [Example 149, 2-(3-Fluorobenzyl)-4-(4-fluorophenyl)-5-[4-(aminosulfonyl)phenyl]-3(2H)-pyrdazinone]

- melting point: 168 to 170 °C
- inhibition at 100 µM [3, 6]: 31%
- IC50 [4]: 41 nM
Molecule: Cc1cc(-n2ncc(-c3ccc(S(C)(=O)=O)cc3)c(-c3ccc(F)cc3)c2=O)ccc1F [Example 189, 2-(4-Fluoro-3-methylphenyl)-4-(4-fluorophenyl)-5-[4-(methylsulfonyl)phenyl]-3(2H)-pyridazinone]

- HWPX % Inhib. at Dose (μM) ([3]; 3 μM): 29 @ 3%
- Wish % Inhib. at Dose (μM) ([4]; 0.01 μM): 15 @ .01%
- Wish % Inhib. at Dose (μM) ([4]; 0.1 μM): 78 @ .1%
Molecule: CS(=O)(=O)c1ccc(-c2cnn(Cc3ccccc3)c(=O)c2-c2ccc(Cl)s2)cc1 [Example 320, 2-Benzyl-4-(5-chloro-2-thienyl)-5-[4-(methylsulfonyl)phenyl]-3(2H)-pyrdazinone]

- IC50 [1]: 199 nM
- IC50 [3]: 2300 nM
- IC50 [4]: 40 nM
Molecule: Cc1ccc(-c2c(-c3ccc(S(C)(=O)=O)cc3)cnn(Cc3ccccc3)c2=O)cc1C [Example 325, 2-Benzyl-4-(3,4-dimethylphenl)-5-[4-(methylsulfonyl)phenyl]-3(2H)-pyridazinone]
